Laboratory results from US20230165867A1 (CHENGDU BAIYU PHARMACEUTICAL CO., LTD., priority 2020, published 2023).
Like-named read-outs stand apart in the source and are kept apart here.

Assays:
[1] = Metabolic stability in liver microsomes; assay type: in vitro ADME, human; details: 0.5 µM test substance, 0.5 mg/mL microsomes, NADPH and UDPGA, 37° C.; for half-life at 0.5 µM: human, human liver microsomes, read-out: T½(min), stability in human liver microsomes
Description: Liver microsomes (purchased from Reed Liver Disease Research (Shanghai) Co., Ltd., product: human liver microsomes (NJT)); NADPH (purchased from Roche, Lot: 40939); UDPGA; the compounds of the present invention (test substances).
• (1) A mixed working solution of testosterone (0.5 µM) and 7-hydroxycoumarin (0.5 µM) was prepared. • (2) A mixed solution of NADPH (1 mM) and UDPGA (1 mM) was prepared, and prewarmed at 37° C. in a water bath shaker before use. • (3) Liver microsomes were thawed and diluted with a buffer. • (4) A preparation of a test substance (0.5 µM) and a solution of liver microsomes (0.5 mg/mL) were added to each well of an incubation plate. • (5) Three experimental groups were set and samples were added. Test group: the test substance was incubated with liver microsomes for 0 min, 30 min, 60 min, and 120 min in the presence of the coenzyme NADPH and UDPGA; Positive control group: testosterone (0.5 µM) and 7-hydroxycoumarin (0.5 µM) were incubated with microsomes for 0 min and 120 min in the presence of the coenzyme NADPH and UDPGA; Negative control group: the test substance was incubated with microsomes for 0 and 120 min without any coenzyme. • (6) All samples were incubated at 37° C., and pre-cooled methanol was added at each termination time (0, 15, 30, 45, 60 min, 120 min) to terminate the reaction, and the time was recorded. • (7) All samples were mixed well and centrifuged at 4000 rpm for 10 min. The supernatant was taken and measured by LC-MS/MS for the amount of the test substance remaining in the samples. Data analysis was carried out as follows: T½=0.693 /k, Clint = (0.693/T½) × (1 /(microsomal protein) × Scaling Factors), Note: k is the slope of the logarithm of the remaining amounts of compound versus time.

[2] = molecular target: T1, DNA-PK kinase (Homo sapiens, UniProt P78527); test: Inhibition assay of DNA-PK kinase (Promega kit, ADP-Glo chemiluminescence); assay type: biochemical; details: 50 µM ATP, 37° C., 60 min; read-out: IC50 (nM), inhibitory activity on DNA-PK kinase
T1 construct: purchased Promega V4107
Description: The inhibitory activity of the compounds on DNA-PK kinase was measured by using a DNA-PK kinase assay kit (purchased from Promega, Cat.#: V4107, Lot: 0000366495). The results were quantified by chemiluminescence, and the detailed experimental protocol was as follows: • i. An ADP-fluorescence standard curve over a range of concentrations was plotted according to the kit instructions; • ii. […] The mixtures were mixed well, centrifuged (1000 rpm, 30 s), and incubated at 37° C. for 60 min; • iv. 5 µL of ADP-Glo™ Reagent was added to stop the reaction, which was then mixed well, centrifuged (1000 rpm, 30 s), and incubated at room temperature for 40 min; • v. 10 µL Kinase Detection Reagent was added, and the mixture was mixed well by shaking, centrifuged (1000 rpm, 30 s), and incubated at room temperature for 30 min; • vi. The […] was measured by using a microplate reader (Thermo fisher, Varioskan LUX).

[3] = Pharmacokinetic assay in ICR mice (i.v. and p.o.); assay type: in vivo; details: mouse, plasma, male ICR mice; for half-life: read-out: T½ (converted); for bioavailability: po 10 mg/kg vs iv 1 mg/kg
Description: ICR mice were purchased from Beijing Vital River Laboratory Animal Technology Co., Ltd.
3.2 Experimental procedure • (1) Healthy male ICR mice (18-22 g) were prepared, with 18 mice for each compound. The mice were divided into 2 groups (an i.v. group and a p.o. group), with 9 mice per group. 3 mice were picked for blood collection at each time point. • (2) After the animals were fasted overnight (with free access to water), the compound of the present invention dissolved (or suspended) in a solvent of 5% DMSO and 95% 30% HP-β-CD (v:v) was administered via the tail vein (i.v., 1 mg/kg) or intragastrically (p.o., 10 mg/kg), respectively. • (3) For the i.v. group, 0.1 mL blood was collected from the submandibular vein 5 min, 15 min, 0.5 h, 1 h, 2 h, 4 h, 8 h, 12 h, and 24 h after administration, respectively, anticoagulated with EDTA-K2, and centrifuged at 4° C. for 5 min to obtain plasma, which was stored at -20° C. until testing. (4) For the p.o. group, 0.1 mL blood was collected from the submandibular vein before administration and 15 min, 0.5 h, 1 h, 2 h, 4 h, 6 h, 8 h, 12 h, and 24 h after administration, and treated in the same manner as that for the intravenous group. • (5) The concentration of the compound of the present invention in plasma was measured by LC/MS/MS. • (6) Calculation and fitting were performed with Analyst 1.6 from AB Company, and the results are shown in Table 3.

In the case of `[2H]C([2H])([2H])c1cc(C#N)ccc1Nc1ncc2c(n1)n(C1CCOCC1)c(=O)n2C` (single isomer, unassigned) [Compound 25, 3-(Methyl-d3)-4-((7-methyl-8-oxo-9-(tetrahydro-2H-pyran-4-yl)-8,9-dihydro-7H-purin-2-yl)amino)benzonitrile], the half-life at 0.5 µM [1] is reported as > 120 min.
With `Cc1cc(C(N)=O)c(F)cc1Nc1ncc2c(n1)n(C1CCC(C)(C#N)CC1)c(=O)n2C` (single isomer, unassigned) [Compound 92-1, 4-((9-(4-cyano-4-methylcyclohexyl)-7-methyl-8-oxo-8,9-dihydro-7H-purin-2-yl)amino)-2-fluoro-5-methylbenzamide] the half-life at 0.5 µM [1] was > 120 min.
In the case of `Cc1cc(C(N)=O)c(F)cc1Nc1ncc2c(n1)n(C1CCC(C)(C#N)CC1)c(=O)n2C` (single isomer, unassigned) [Compound 92-2, 4-((9-(4-cyano-4-methylcyclohexyl)-7-methyl-8-oxo-8,9-dihydro-7H-purin-2-yl)amino)-2-fluoro-5-methylbenzamide], the “T½(min), stability in human liver microsomes” value [1] is reported as >120 min.
In the case of `Cc1cc(C#N)c(F)cc1Nc1ncc2c(n1)n(C1CCOCC1)c(=O)n2C` [Compound 8, 2-Fluoro-5-methyl-4-((7-methyl-8-oxo-9-(tetrahydro-2H-pyran-4-yl)-8,9-dihydro-7H-purin-2-yl)amino)benzonitrile], the IC50 [2] is reported as 11.7 nM and the half-life at 0.5 µM [1] is reported as > 120 min.
With `[2H]C([2H])([2H])NC(=O)c1cc(C)c(Nc2ncc3c(n2)n(C2CCOCC2)c(=O)n3C)cn1` [Compound 39, 4-Methyl-N-(methyl-d3)-5-((7-methyl-8-oxo-9-(tetrahydro-2H-pyran-4-yl)-8,9-dihydro-7H-purin-2-yl)amino)picolinamide] the IC50 [2] was 5.7 nM and the half-life at 0.5 µM [1] was > 120 min.
In the case of `[2H]C([2H])([2H])c1cc(C(N)=O)c(F)cc1Nc1ncc2c(n1)n(C1CCOCC1)c(=O)n2C` [Compound 44, 2-Fluoro-5-(methyl-d3)-4-((7-methyl-8-oxo-9-(tetrahydro-2H-pyran-4-yl)-8,9-dihydro-7H-purin-2-yl)amino)benzamide], the IC50 [2] is reported as 1.1 nM and the half-life at 0.5 µM [1] is reported as > 120 min.
In the case of `Cc1cc(C(N)=O)c(C(F)(F)F)cc1Nc1ncc2c(n1)n(C1CCOCC1)c(=O)n2C` [Compound 48, 5-Methyl-4-((7-methyl-8-oxo-9-(tetrahydro-2H-pyran-4-yl)-8,9-dihydro-7H-purin-2-yl)amino)-2-(trifluoromethyl)benzamide], the IC50 [2] is reported as 1.96 nM and the half-life at 0.5 µM [1] is reported as > 120 min.
In the case of `CCOc1cc(Nc2ncc3c(n2)n(C2CCOCC2)c(=O)n3C)c(C)cc1C(N)=O` [Compound 53, 2-Ethoxy-5-methyl-4-((7-methyl-8-oxo-9-(tetrahydro-2H-pyran-4-yl)-8,9-dihydro-7H-purin-2-yl)amino)benzamide], the IC50 [2] is reported as 0.32 nM and the half-life at 0.5 µM [1] is reported as > 120 min.
With `COc1cc(Nc2ncc3c(n2)n(C2CCOCC2)c(=O)n3C)c(C)cc1C(N)=O` [Compound 57, 2-Methoxy-5-methyl-4-((7-methyl-8-oxo-9-(tetrahydro-2H-pyran-4-yl)-8,9-dihydro-7H-purin-2-yl)amino)benzamide] the IC50 [2] was 3.98 nM and the half-life at 0.5 µM [1] was > 120 min.
For `CCn1c(=O)n(C2CCOCC2)c2nc(Nc3cc(F)c(C(N)=O)cc3C)ncc21` [Compound 62, 4-((7-ethyl-8-oxo-9-(tetrahydro-2H-pyran-4-yl)-8,9-dihydro-7H-purin-2-yl)amino)-2-fluoro-5-methylbenzamide], the IC50 [2] was 4.17 nM, the AUC ([3]; iv, 1 mg/kg) was 1190 ng·h/mL and the half-life ([3]; iv, 1 mg/kg) was 1.69 h. The bioavailability [3] was 44.8%, the AUC ([3]; po, 10 mg/kg) was 4720 ng·h/mL and the Cmax ([3]; po, 10 mg/kg) was 1850 ng/mL. For the same compound, the half-life ([3]; po, 10 mg/kg) was 3.01 h.
With `Cc1cc(C(N)=O)c(F)cc1Nc1ncc2c(n1)n(C1CCCOC1)c(=O)n2C` (centres unmarked) [Compound 69, 2-fluoro-5-methyl-4-((7-methyl-8-oxo-9-(tetrahydro-2H-pyran-3-yl)-8,9-dihydro-7H-purin-2-yl)amino)benzamide] the IC50 [2] was 1.25 nM and the half-life at 0.5 µM [1] was > 120 min.
With `Cc1cc(C(N)=O)c(F)cc1Nc1ncc2c(n1)n([C@H]1CC[C@@](C)(O)CC1)c(=O)n2C` [Compound 72, 2-Fluoro-4-((9-(cis-4-hydroxy-4-methylcyclohexyl)-7-methyl-8-oxo-8,9-dihydro-7H-purin-2-yl)amino)-5-methylbenzamide] the AUC ([3]; iv, 1 mg/kg) was 1700 ng·h/mL, the half-life ([3]; iv, 1 mg/kg) was 2.92 h and the bioavailability [3] was 166%. It also gave an AUC ([3]; po, 10 mg/kg) of 28200 ng·h/mL, a Cmax ([3]; po, 10 mg/kg) of 4680 ng/mL and a half-life ([3]; po, 10 mg/kg) of 2.58 h. The half-life at 0.5 µM [1] was > 120 min.
In the case of `Cc1cc(C(N)=O)c(F)cc1Nc1ncc2c(n1)n([C@H]1CC[C@](C)(O)CC1)c(=O)n2C` [Compound 73, 2-Fluoro-4-((9-(trans-4-hydroxy-4-methylcyclohexyl)-7-methyl-8-oxo-8,9-dihydro-7H-purin-2-yl)amino)-5-methylbenzamide], the AUC ([3]; iv, 1 mg/kg) is reported as 239 ng·h/mL, the half-life ([3]; iv, 1 mg/kg) is reported as 1.24 h and the bioavailability [3] is reported as 56%. It also gave an AUC ([3]; po, 10 mg/kg) of 1270 ng·h/mL, a Cmax ([3]; po, 10 mg/kg) of 484 ng/mL and a half-life ([3]; po, 10 mg/kg) of 2.5 h. For the same compound, the half-life at 0.5 µM [1] was > 120 min.
`Cc1cc(C#N)ccc1Nc1ncc2c(n1)n([C@H]1CC[C@@H](C#N)CC1)c(=O)n2C` [Compound 78, 4-((9-(cis-4-cyanocyclohexyl)-7-methyl-8-oxo-8,9-dihydro-7H-purin-2-yl)amino)-3-methylbenzonitrile] gave an IC50 [2] of 0.038 nM, an AUC ([3]; iv, 1 mg/kg) of 216 ng·h/mL and a half-life ([3]; iv, 1 mg/kg) of 1.17 h. For the same compound, the bioavailability [3] was 65.2%, the AUC ([3]; po, 10 mg/kg) was 1200 ng·h/mL and the Cmax ([3]; po, 10 mg/kg) was 446 ng/mL. For the same compound, the half-life ([3]; po, 10 mg/kg) was 3.5 h.
With `Cc1cc(C(N)=O)c(F)cc1Nc1ncc2c(n1)n(C1CCNCC1)c(=O)n2C` [Compound 81, 2-Fluoro-5-methyl-4-((7-methyl-8-oxo-9-(piperidin-4-yl)-8,9-dihydro-7H-purin-2-yl)amino)benzamide] the IC50 [2] was 47.1 nM and the half-life at 0.5 µM [1] was > 120 min.
With `Cc1cc(C(N)=O)c(F)cc1Nc1ncc2c(n1)n(C1CCN(C)CC1)c(=O)n2C` [Compound 82, 2-Fluoro-5-methyl-4-((7-methyl-9-(1-methylpiperidin-4-yl)-8-oxo-8,9-dihydro-7H-purin-2-yl)amino)benzamide] the IC50 [2] was 24.5 nM and the half-life at 0.5 µM [1] was > 120 min.
With `Cc1cc(C(N)=O)c(F)cc1Nc1ncc2c(n1)n(C1CCC(F)(F)CC1)c(=O)n2C` [Compound 83, 4-((9-(4,4-difluorocyclohexyl)-7-methyl-8-oxo-8,9-dihydro-7H-purin-2-yl)amino)-2-fluoro-5-methylbenzamide] the IC50 [2] was 0.43 nM and the half-life at 0.5 µM [1] was > 120 min.
With `Cc1cc(C(N)=O)c(F)cc1Nc1ncc2c(n1)n(C1CC3CCC(C1)O3)c(=O)n2C` (centres unmarked) [Compound 85, 4-((9-(8-oxabicyclo[3.2.1]octan-3-yl)-7-methyl-8-oxo-8,9-dihydro-7H-purin-2-yl)amino)-2-fluoro-5-methylbenzamide] the IC50 [2] was 1.1 nM and the half-life at 0.5 µM [1] was > 120 min.
